From ChEMBL document CHEMBL5257116, “Design, synthesis, and biological evaluation of acyl sulfonamide derivatives with spiro cycles as NaV1.7 inhibitors for antinociception” (Bioorg Med Chem, 2023)
Activity calls are given as the source filed them. No cut-off for these calls is given here.

Experiments:
[1] = target: T1, Sodium channel protein type 9 subunit alpha (Homo sapiens, UniProt Q15858); experiment: Inhibition of human Nav1.7 expressed in HEK293 cells at 10 uM measured for 48 hrs by whole-cell patch clamp electrophysiology assay; type: cell-based
Target sequence in this assay (Q15858 whole entry, looked up): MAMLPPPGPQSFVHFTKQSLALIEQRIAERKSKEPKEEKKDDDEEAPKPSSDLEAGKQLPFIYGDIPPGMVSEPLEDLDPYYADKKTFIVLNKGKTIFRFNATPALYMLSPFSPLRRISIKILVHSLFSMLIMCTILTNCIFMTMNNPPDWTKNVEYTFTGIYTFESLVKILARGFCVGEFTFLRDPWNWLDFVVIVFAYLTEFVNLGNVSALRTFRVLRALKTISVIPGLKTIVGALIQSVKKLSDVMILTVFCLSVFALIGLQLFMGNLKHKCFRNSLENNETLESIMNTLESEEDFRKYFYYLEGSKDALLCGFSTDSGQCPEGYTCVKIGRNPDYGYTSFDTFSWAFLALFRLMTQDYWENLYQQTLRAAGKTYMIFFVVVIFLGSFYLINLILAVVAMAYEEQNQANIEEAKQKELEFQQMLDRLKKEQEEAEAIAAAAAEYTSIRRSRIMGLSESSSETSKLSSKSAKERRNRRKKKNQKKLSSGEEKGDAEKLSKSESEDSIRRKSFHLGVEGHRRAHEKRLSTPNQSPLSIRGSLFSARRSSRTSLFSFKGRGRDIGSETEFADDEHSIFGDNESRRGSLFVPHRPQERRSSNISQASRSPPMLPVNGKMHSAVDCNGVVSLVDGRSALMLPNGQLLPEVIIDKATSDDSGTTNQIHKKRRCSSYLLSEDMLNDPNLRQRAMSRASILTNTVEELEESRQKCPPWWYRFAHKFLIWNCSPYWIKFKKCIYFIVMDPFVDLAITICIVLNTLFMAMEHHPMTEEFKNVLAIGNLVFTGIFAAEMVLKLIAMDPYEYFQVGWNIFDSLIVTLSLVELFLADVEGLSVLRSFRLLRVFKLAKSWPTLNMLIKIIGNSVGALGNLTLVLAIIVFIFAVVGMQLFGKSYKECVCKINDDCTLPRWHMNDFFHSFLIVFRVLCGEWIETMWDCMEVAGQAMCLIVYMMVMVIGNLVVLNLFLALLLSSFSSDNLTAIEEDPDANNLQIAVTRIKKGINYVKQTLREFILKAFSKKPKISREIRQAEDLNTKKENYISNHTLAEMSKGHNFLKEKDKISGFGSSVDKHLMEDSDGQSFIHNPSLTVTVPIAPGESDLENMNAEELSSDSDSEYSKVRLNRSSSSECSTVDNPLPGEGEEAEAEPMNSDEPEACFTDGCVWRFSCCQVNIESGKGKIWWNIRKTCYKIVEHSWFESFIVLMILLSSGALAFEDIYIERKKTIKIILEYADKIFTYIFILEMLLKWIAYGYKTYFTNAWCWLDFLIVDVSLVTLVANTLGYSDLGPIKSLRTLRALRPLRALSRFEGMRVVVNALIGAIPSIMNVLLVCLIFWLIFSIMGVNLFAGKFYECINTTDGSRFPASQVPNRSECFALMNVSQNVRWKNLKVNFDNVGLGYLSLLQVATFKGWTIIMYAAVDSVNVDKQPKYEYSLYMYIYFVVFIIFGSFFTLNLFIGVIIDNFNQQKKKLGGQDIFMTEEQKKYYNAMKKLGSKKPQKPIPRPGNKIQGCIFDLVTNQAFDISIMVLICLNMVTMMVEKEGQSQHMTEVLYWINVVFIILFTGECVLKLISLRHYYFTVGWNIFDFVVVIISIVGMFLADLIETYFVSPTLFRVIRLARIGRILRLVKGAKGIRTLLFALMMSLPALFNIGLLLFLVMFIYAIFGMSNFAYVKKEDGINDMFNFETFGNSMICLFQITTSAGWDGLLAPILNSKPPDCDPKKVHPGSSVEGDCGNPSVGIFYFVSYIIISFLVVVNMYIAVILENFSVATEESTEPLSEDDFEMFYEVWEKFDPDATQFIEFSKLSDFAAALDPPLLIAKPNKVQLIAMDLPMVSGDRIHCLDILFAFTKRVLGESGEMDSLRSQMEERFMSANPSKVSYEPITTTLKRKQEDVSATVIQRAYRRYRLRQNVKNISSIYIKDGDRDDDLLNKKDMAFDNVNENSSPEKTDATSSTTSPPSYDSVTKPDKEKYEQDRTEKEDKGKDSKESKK

[2] = target: T1, Sodium channel protein type 9 subunit alpha; experiment: Inhibition of human Nav1.7 expressed in HEK293 cells at 1 uM measured for 48 hrs by whole-cell patch clamp electrophysiology assay; type: cell-based
Target sequence in this assay (Q15858 whole entry, looked up): as above

[3] = target: T1, Sodium channel protein type 9 subunit alpha; experiment: Inhibition of Nav1.7 (unknown origin) by whole-cell patch clamp assay
Target sequence in this assay (Q15858 whole entry): as the sequence (Q15858 whole entry, looked up) above

[4] = target: Sodium channel protein type 5 subunit alpha (Homo sapiens, UniProt Q14524); experiment: Inhibition of Nav1.5 (unknown origin) by whole-cell patch clamp assay
Sequence of Sodium channel protein type 5 subunit alpha (Q14524 whole entry): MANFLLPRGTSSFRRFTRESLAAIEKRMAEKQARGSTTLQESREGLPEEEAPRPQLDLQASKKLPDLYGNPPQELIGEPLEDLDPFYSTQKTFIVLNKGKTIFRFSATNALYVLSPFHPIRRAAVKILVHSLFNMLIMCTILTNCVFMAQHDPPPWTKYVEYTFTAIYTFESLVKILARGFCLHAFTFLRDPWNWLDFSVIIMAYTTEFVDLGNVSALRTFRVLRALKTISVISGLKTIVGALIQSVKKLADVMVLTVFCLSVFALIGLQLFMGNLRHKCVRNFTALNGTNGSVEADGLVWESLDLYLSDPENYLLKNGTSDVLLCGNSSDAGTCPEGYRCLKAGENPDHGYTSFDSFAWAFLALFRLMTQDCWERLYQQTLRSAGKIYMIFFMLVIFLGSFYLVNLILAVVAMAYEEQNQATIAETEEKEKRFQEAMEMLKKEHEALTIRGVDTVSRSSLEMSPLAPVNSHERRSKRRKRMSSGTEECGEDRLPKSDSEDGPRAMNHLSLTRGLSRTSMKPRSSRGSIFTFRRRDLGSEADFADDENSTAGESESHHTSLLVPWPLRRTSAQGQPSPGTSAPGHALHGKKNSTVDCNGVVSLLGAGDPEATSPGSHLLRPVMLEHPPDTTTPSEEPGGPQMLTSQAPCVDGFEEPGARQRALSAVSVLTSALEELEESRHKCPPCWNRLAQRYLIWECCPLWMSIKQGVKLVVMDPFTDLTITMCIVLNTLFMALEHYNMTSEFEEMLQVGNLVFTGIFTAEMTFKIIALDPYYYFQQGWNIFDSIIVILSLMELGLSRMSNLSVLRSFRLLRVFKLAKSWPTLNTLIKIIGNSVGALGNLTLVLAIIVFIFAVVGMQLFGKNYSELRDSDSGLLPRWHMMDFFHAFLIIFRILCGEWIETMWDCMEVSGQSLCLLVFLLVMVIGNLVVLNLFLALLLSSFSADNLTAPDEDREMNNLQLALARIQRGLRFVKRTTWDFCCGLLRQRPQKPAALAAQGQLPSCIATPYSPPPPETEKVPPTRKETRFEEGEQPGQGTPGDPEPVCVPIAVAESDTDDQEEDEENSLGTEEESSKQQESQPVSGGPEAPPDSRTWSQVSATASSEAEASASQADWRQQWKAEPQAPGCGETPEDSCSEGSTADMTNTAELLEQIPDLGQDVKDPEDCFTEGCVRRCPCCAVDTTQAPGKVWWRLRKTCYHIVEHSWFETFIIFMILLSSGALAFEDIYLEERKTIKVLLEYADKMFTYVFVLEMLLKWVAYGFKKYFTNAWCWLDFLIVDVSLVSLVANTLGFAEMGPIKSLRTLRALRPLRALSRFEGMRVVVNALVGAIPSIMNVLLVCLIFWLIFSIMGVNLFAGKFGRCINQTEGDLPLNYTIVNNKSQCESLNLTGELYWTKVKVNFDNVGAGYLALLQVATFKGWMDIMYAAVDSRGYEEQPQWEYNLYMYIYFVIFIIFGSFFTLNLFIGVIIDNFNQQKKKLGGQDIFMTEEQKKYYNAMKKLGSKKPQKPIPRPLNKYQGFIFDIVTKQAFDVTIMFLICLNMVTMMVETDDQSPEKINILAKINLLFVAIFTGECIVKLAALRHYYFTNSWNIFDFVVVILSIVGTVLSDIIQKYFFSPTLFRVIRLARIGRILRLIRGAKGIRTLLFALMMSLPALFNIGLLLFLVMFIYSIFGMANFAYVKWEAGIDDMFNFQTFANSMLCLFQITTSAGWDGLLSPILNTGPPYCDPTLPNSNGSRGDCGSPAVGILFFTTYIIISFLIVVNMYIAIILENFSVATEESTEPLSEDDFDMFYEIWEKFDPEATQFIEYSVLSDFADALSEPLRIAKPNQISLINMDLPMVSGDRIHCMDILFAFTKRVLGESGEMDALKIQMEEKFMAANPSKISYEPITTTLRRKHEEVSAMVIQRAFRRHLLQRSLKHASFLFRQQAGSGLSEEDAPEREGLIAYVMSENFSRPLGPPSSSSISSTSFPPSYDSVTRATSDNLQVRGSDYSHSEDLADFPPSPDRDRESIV

[5] = target: Sodium channel protein type 4 subunit alpha (Homo sapiens, UniProt P35499); experiment: Inhibition of Nav1.4 (unknown origin) by whole-cell patch clamp assay
Mus musculus [6] = experiment: Antinociceptive activity in Kunming mouse at 20 mg/kg,ip measured for 1 to 4 hrs after administration by hot plate test; type: functional, organism-based; conditions: time 1-4 hrs
Mus musculus [7] = experiment: Antinociceptive activity in Kunming mouse at 10 mg/kg,ip measured for 1 to 4 hrs after administration by hot plate test; type: functional, organism-based; conditions: time 1-4 hrs
Mus musculus [8] = experiment: Antinociceptive activity in Kunming mouse at 40 mg/kg,ip measured for 1 to 4 hrs after administration by hot plate test; type: functional, organism-based; conditions: time 1-4 hrs
Mus musculus [9] = experiment: Antinociceptive activity in Kunming mouse assessed as inhibition of acetic acid-induced abdominal constrictions at 10 to 40 mg/kg,ip pre-administrated for 2 hrs followed by acetic acid induction and measured for 15 mins by writhing test; type: functional, organism-based; conditions: dose 10-40 mg/kg, time 135.0 min
[10] = Sedative activity in Kunming mouse assessed as effect on spontaneous locomotor activity at 20 mg/kg,ip administrated for 2 hrs and measured for 30 mins by open field test; type: toxicity, organism-based; conditions: in vivo, 2.5 h
Homo sapiens = species: Homo sapiens; experiment: Selectivity ratio of IC50 for inhibition of Nav1.7 (unknown origin) to IC50 for inhibition of Nav1.4 (unknown origin)

Compound	inhibition [1] [%]	inhibition [2] [%]	other results
O=C(NS(=O)(=O)C1CC1)c1ccc(OCC2CCC3(CCNCC3)C2)cc1 (stereo not given)	0.2		
O=C(NS(=O)(=O)C1CC1)c1ccc(OCCC2CCC3(CCN(Cc4ccccc4)CC3)C2)cc1 (stereo not given)	92		
O=C(NS(=O)(=O)C1CC1)c1cc(Cl)c(OCCC2CCC3(CCN(Cc4ccsc4)CC3)C2)cc1F (stereo not given)	95.9	61.4	IC50 [3]: 0.84 µM; IC50 [4]: 54.7 µM
CCN1CCC2(CCC(Oc3ccc(C(=O)NS(=O)(=O)C4CC4)cc3)C2)CC1 (stereo not given)	16.8		
CCN1CCC2(CCC(CCOc3ccc(C(=O)NS(=O)(=O)C4CC4)cc3)C2)CC1 (stereo not given)	24.2		
O=C(NS(=O)(=O)C1CC1)c1cc(C2CC2)c(OCCC2CCC3(CCN(Cc4ccccc4)CC3)C2)cc1F (stereo not given)	96.5		
O=C(NS(=O)(=O)C1CC1)c1ccc(OC2CC3(CCNCC3)C2)cc1	15.4		
O=C(NS(=O)(=O)C1CC1)c1cc(Cl)c(OCCC2CCC3(CCN(Cc4ccccc4)CC3)C2)cc1F (stereo not given)	102	70.8	IC50 [3]: 0.46 µM; IC50 [4]: 46.2 µM; IC50 [5]: 4.88 µM; Activity (Mus musculus [6]): Active; Activity (Mus musculus [7]): inactive; Activity (Mus musculus [8]): inactive; Activity (Mus musculus [9]): Dose-Dependent Effect; Activity [10]: Non-Toxic; Ratio IC50 (Homo sapiens): 10
O=C(NS(=O)(=O)C1CC1)c1cc(Cl)c(OCCC2CCC3(CCN(Cc4cccc(C(F)(F)F)c4)CC3)C2)cc1F (stereo not given)	55.9	16.1	
O=C(NS(=O)(=O)C1CC1)c1cc(Cl)c(OCCC2CCC3(CCN(CC4CCCCC4)CC3)C2)cc1F (stereo not given)	65.5	20.1	
Cc1cc(C(=O)NS(=O)(=O)C2CC2)c(F)cc1OCCC1CCC2(CCN(Cc3ccccc3)CC2)C1 (stereo not given)	101		IC50 [3]: 1.04 µM
O=C(NS(=O)(=O)C1CC1)c1ccc(OC2CCC3(CCNCC3)C2)cc1 (stereo not given)	71.4		
O=C(NS(=O)(=O)C1CC1)c1ccc(OC2CCC3(CCNCC3)CC2)cc1	11.2		
O=C(NS(=O)(=O)C1CC1)c1cc(Cl)c(OCCC2CCC3(CCN(Cc4ccc(Cl)cc4)CC3)C2)cc1F (stereo not given)	87.2	23.8	
O=C(NS(=O)(=O)C1CC1)c1ccc(OC2CCC3(CC2)CCN(Cc2ccccc2)CC3)cc1	13.7		
O=C(NS(=O)(=O)C1CC1)c1cc(Cl)c(OCCC2CCC3(CCN(CCCc4ccccc4)CC3)C2)cc1F (stereo not given)	72.8	21.2	
CCc1ccc(CN2CCC3(CCC(CCOc4cc(F)c(C(=O)NS(=O)(=O)C5CC5)cc4Cl)C3)CC2)cc1 (stereo not given)	93.9	29.4	

The next lines start with results.

inhibition [1] [%]	inhibition [2] [%]	Compound	other results
57.4		O=C(NS(=O)(=O)C1CC1)c1ccc(OCC2CCC3(CCN(Cc4ccccc4)CC3)C2)cc1 (stereo not given)	
97.1	33.5	O=C(NS(=O)(=O)C1CC1)c1cc(Cl)c(OCCC2CCC3(CCN(Cc4cccc5ccccc45)CC3)C2)cc1F (stereo not given)	
75.1	27.5	O=C(NS(=O)(=O)C1CC1)c1cc(Cl)c(OCCC2CCC3(CCN(CCc4ccccc4)CC3)C2)cc1F (stereo not given)	
14.3		CCN1CCC2(CC1)CC(Oc1ccc(C(=O)NS(=O)(=O)C3CC3)cc1)C2	
22.9		CCN1CCC2(CCC(Oc3ccc(C(=O)NS(=O)(=O)C4CC4)cc3)CC2)CC1	
30.9	12.5	C[C@H](NCc1ccc(OCc2ccccc2F)cc1)C(N)=O [RALFINAMIDE]	IC50 [3]: 35.2 µM; Activity (Mus musculus [6]): Active
99.7		O=C(NS(=O)(=O)C1CC1)c1cc(F)c(OCCC2CCC3(CCN(Cc4ccccc4)CC3)C2)cc1F (stereo not given)	IC50 [3]: 1.15 µM
77.2		O=C(NS(=O)(=O)C1CC1)c1cc(Cl)c(OCCC2CCC3(CCN(Cc4cc(Cl)cc(Cl)c4)CC3)C2)cc1F (stereo not given)	
21.5		O=C(NS(=O)(=O)C1CC1)c1ccc(OC2CC3(CCN(Cc4ccccc4)CC3)C2)cc1	
97.6	60	O=C(NS(=O)(=O)C1CC1)c1cc(Cl)c(OCCC2CCC3(CCN(Cc4ccco4)CC3)C2)cc1F (stereo not given)	IC50 [3]: 0.61 µM
1.4		CCN1CCC2(CCC(COc3ccc(C(=O)NS(=O)(=O)C4CC4)cc3)C2)CC1 (stereo not given)	
89.3	31.1	COc1ccc(CN2CCC3(CCC(CCOc4cc(F)c(C(=O)NS(=O)(=O)C5CC5)cc4Cl)C3)CC2)cc1 (stereo not given)	
24.3		CCN1CCC2(CCC(CCOc3cc(F)c(C(=O)NS(=O)(=O)C4CC4)cc3Cl)C2)CC1 (stereo not given)	
8.4		O=C(NS(=O)(=O)C1CC1)c1ccc(OCCC2CCC3(CCNCC3)C2)cc1 (stereo not given)	
89.6		O=C(NS(=O)(=O)C1CC1)c1cc(Cl)c(OCCC2(F)CCN(Cc3cc(Cl)cc(Cl)c3)CC2)cc1F	IC50 [3]: 1.01 µM; IC50 [4]: 58.9 µM; IC50 [5]: 2.7 µM; Ratio IC50 (Homo sapiens): 3
45.7		O=C(NS(=O)(=O)C1CC1)c1ccc(OC2CCC3(CCN(Cc4ccccc4)CC3)C2)cc1 (stereo not given)	
